In PubChem BioAssay (NCI):
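Following 48 hours of exposure in 96-well plates, responses at five concentrations were used to interpolate endpoints linearly. Abbreviation: GI50, concentration required for 50% inhibition of growth. TGI is the concentration that stops growth completely.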

Assays:
Assay in all cases: DTP human tumour cell line panel, 48 h
HOP-62 NSCLC = test system: HOP-62 NSCLC
SK-OV-3 ovarian = test system: SK-OV-3 ovarian
RXF 393 renal = test system: RXF 393 renal
HT29 colon = test system: HT29 colon
T-47D breast = test system: T-47D breast
PC-3 prostate = test system: PC-3 prostate
SF-268 CNS = test system: SF-268 CNS
MALME-3M melanoma = test system: MALME-3M melanoma
786-0 renal = test system: 786-0 renal
UACC-257 melanoma = test system: UACC-257 melanoma

SMILES | TGI (HOP-62 NSCLC) | TGI (SK-OV-3 ovarian) | TGI (RXF 393 renal) | TGI (HT29 colon) | TGI (T-47D breast) | TGI (PC-3 prostate) | TGI (SF-268 CNS) | TGI (MALME-3M melanoma) | TGI (786-0 renal) | TGI (UACC-257 melanoma) | GI50 (HOP-62 NSCLC) | GI50 (SK-OV-3 ovarian) | GI50 (RXF 393 renal) | GI50 (HT29 colon) | GI50 (T-47D breast) | GI50 (PC-3 prostate) | GI50 (SF-268 CNS) | GI50 (MALME-3M melanoma) | GI50 (786-0 renal) | GI50 (UACC-257 melanoma)
CC(C)c1ccc(NC(=S)NC(=O)c2ccccc2)cc1 | > 100 µM | > 100 µM | 44.9 µM | 32.4 µM | 77.2 µM | > 100 µM | 46.4 µM | 69.8 µM | 46.4 µM | 37.5 µM | – | – | – | – | – | – | – | – | – | –
COc1ccc(N(/C=C/C(=O)C(F)(F)F)CC(=O)c2ccc(Cl)c(Cl)c2)cc1 | 30.9 µM | 39.7 µM | > 100 µM | > 100 µM | 48.3 µM | 28.3 µM | 30.3 µM | > 100 µM | 29.5 µM | 35.4 µM | 16.9 µM | 20.1 µM | 36.3 µM | 29.8 µM | 18.9 µM | 8.33 µM | 11.3 µM | 39.7 µM | 15.5 µM | 16.7 µM
CC(=O)OC1Oc2ccccc2-c2oc(=O)c(-c3cc4ccccc4oc3=O)cc21 (stereo unspecified) | 34.4 µM | 30 µM | – | > 100 µM | 51.8 µM | > 100 µM | 40.9 µM | 36.5 µM | 31.3 µM | 36.6 µM | 18.6 µM | 13.7 µM | – | 33 µM | 21.3 µM | 29.1 µM | 19.6 µM | 13.9 µM | 16.6 µM | 14.1 µM
COc1ccccc1/C=C/C(=O)/C=C/c1ccccc1OC | 6.92 µM | 8.66 µM | 3.06 µM | 5.04 µM | 8.4 µM | 7.03 µM | 4.57 µM | 4.35 µM | 3.59 µM | 3.72 µM | 3 µM | 2.94 µM | 1.6 µM | 2.24 µM | 1.47 µM | 2.26 µM | 1.92 µM | 2.11 µM | 1.85 µM | 1.69 µM
C=C1C[C@@]2(C)C(CC[C@]3(C)C2CC=C2C4CC(C)(C)C[C@@H](OC(=O)/C(C)=C\C)[C@]4(C(=O)O)CC[C@]23C)C(C)(C)C1=O (stereo partly specified) | 22.3 µM | 33.4 µM | 3.57 µM | 6.81 µM | 15.2 µM | 5.94 µM | 28 µM | 15.6 µM | 3.9 µM | 16.4 µM | 3.43 µM | 14.3 µM | 1.76 µM | 2.55 µM | 3.25 µM | 1.99 µM | 6.76 µM | 3.89 µM | 2 µM | 3.53 µM
Cc1cc(N(CCCl)CCCl)ccc1/C=N/NC(=O)Cc1cc(=O)oc2cc(O)ccc12 | 39.7 µM | – | 44.3 µM | 31.2 µM | 56.9 µM | 27.5 µM | 56.4 µM | 27.7 µM | 59.7 µM | 58.1 µM | – | – | – | – | – | – | – | – | – | –
C/C(=N\N=C(N)N)C(CN(C)C)C(c1ccccc1)c1c(O)c2ccccc2oc1=O (stereo unspecified) | > 100 µM | > 100 µM | > 100 µM | > 100 µM | > 100 µM | > 100 µM | > 100 µM | > 100 µM | > 100 µM | > 100 µM | – | – | – | – | – | – | – | – | – | –
Nc1nc(-c2cccc([N+](=O)[O-])c2)cc(-c2cc(-c3cccc([N+](=O)[O-])c3)nc(N)n2)n1 | > 100 µM | > 100 µM | > 100 µM | > 100 µM | > 100 µM | > 100 µM | > 100 µM | > 100 µM | > 100 µM | > 100 µM | – | – | – | – | – | – | – | – | – | –
COc1ccc(/C=C/NC=O)cc1 | > 100 µM | > 100 µM | > 100 µM | > 100 µM | > 100 µM | > 100 µM | > 100 µM | > 100 µM | > 100 µM | > 100 µM | – | – | – | – | – | – | – | – | – | –
CCSc1nnc(-c2ccc3ccccc3c2O)n1-c1ccc(Cl)cc1 | > 100 µM | > 100 µM | > 100 µM | > 100 µM | > 100 µM | > 100 µM | > 100 µM | > 100 µM | > 100 µM | > 100 µM | 22.1 µM | 69.5 µM | 42.3 µM | 16 µM | 8.96 µM | 50.1 µM | 26.1 µM | > 100 µM | 60.3 µM | > 100 µM
CC(C)Nc1ncc2cc(Oc3ccc(F)cc3F)c(=O)n(C)c2n1 | > 25 µM | > 25 µM | > 25 µM | > 25 µM | > 25 µM | > 25 µM | > 25 µM | > 25 µM | > 25 µM | > 25 µM | > 25 µM | > 25 µM | 12.7 µM | > 25 µM | > 25 µM | > 25 µM | > 23.7 µM | > 25 µM | > 25 µM | > 25 µM
Cc1cc(=O)oc2cc(OS(C)(=O)=O)ccc12 | > 100 µM | – | > 100 µM | > 100 µM | > 100 µM | > 100 µM | > 100 µM | > 100 µM | > 100 µM | > 100 µM | – | – | – | – | – | – | – | – | – | –
